Measured values taken from US9126999B2, “Tetrahydropyrazolopyrimidine compounds” (EISAI R&D MANAGEMENT CO., LTD., priority 2012, dated 2015).
pIC50: −log10 of the molar value.

Columns and labels:
[1] = target: T1, Human TLR7 (Homo sapiens, UniProt Q9NYK1); assay: HEK-293 NF-kappaB luciferase reporter assay, CL097 stimulus; format: cell-based; conditions: ligand CL097, analyte NFkB-luciferase
T1 construct: engineered to stably and individually express human TLR4, TLR7 or TLR9 full-length ORF cDNAs; host or cells: HEK-293 (ATCC) with ELAM-1 NF-kappaB luciferase reporter
T1 sequence (Q9NYK1 27-1049): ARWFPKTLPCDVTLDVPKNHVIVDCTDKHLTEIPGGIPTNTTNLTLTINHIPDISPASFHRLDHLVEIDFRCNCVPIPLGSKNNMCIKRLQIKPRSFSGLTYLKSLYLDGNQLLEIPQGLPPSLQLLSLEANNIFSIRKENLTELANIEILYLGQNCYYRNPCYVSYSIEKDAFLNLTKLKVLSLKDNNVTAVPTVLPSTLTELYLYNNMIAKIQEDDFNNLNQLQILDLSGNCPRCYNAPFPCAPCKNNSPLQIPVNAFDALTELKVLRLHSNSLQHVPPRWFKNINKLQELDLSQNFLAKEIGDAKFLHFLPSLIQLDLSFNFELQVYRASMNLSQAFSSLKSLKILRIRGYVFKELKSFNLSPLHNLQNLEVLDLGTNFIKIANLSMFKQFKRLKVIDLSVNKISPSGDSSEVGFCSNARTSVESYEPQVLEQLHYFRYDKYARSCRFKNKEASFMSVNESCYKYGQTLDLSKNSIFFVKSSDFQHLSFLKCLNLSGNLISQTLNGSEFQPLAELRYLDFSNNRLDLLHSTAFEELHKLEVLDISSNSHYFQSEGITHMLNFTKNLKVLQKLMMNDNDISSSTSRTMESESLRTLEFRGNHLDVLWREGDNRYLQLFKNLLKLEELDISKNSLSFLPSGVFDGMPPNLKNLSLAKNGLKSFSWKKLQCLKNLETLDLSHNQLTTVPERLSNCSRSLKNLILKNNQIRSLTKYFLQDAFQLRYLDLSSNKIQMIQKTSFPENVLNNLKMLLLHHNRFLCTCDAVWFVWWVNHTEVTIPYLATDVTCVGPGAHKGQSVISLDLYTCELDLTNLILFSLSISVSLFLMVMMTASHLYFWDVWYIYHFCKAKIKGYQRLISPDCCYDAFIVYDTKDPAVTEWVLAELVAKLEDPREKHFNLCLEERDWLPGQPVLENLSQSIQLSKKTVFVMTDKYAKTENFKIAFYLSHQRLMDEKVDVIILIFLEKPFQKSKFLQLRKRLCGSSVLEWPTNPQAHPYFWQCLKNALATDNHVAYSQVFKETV
Description: (§1) In vitro pharmacology: HEK-293 cells (ATCC) were engineered to stably express a NF-kappaB transcription factor inducible E-selectin (ELAM-1) luciferase reporter derived from the plasmid pGL3 (Promega) containing base pairs −2241 bp to −254 bp from the promoter of the human E-selectin gene (Accession No. NM_000450). These cells were then subsequently engineered to stably and individually express human TLR4, TLR7 or TLR9 full-length ORF cDNAs. Human TLR4 cDNA (Accession No. NM_138554) was cloned into pcDNA 3.0 expression vector (Invitrogen). TLR4 transfected cells were also engineered to express human MD-2 co-receptor [MD-2 cDNA (Accession No. NM_015364) was cloned into the pEF-BOS vector] and were supplemented with 10 nM soluble CD14 (R&D Systems) in the media to optimize LPS responsiveness. Human TLR9 cDNA (Accession No. NM_017442) was cloned into the pBluescript II KS vector (Agilent). Human TLR7 cDNA (Accession No. NM_016562) was obtained from OriGene. HEK-293 cells stably expressing human TLR8 (Accession No. NM_138636) or mouse TLR7 (Accession No. NM_133211) were purchased from InvivoGen and were then stably transfected with pNiFty2(NF-kappaB)-luciferase reporter plasmid (InvivoGen). Each cell type was plated in Dulbecco's modified Eagle's medium (DMEM) containing 10% fetal bovine serum (FBS) at a density of 2.22×10^5 cells/ml into a 384-well plate and incubated for 2 days at 37° C., 5% CO2. Varying concentrations of antagonist compounds were then added. Cells were then incubated for another 30 minutes before adding the appropriate TLR agonist as follows (final concentrations indicated): lipopolysaccharide (LPS; Sigma) at 10 ng/ml for TLR4, CL097 (InvivoGen) at 3 ug/ml for human TLR7 and TLR8 and mouse TLR7, and CpG-2006-2A [sequence: […] (SEQ ID NO: 1) with phosphorothioate backbone, synthesized by Sigma-Aldrich] at 0.6 uM for TLR9.

[2] = target: T2, Mouse TLR7 (Mus musculus, UniProt P58681); assay: as above; format: cell-based; conditions: ligand CL097, analyte NFkB-luciferase
T2 construct: endogenous in cells; host or cells: female BALB/c mice, in vivo
T2 sequence (P58681 27-1050): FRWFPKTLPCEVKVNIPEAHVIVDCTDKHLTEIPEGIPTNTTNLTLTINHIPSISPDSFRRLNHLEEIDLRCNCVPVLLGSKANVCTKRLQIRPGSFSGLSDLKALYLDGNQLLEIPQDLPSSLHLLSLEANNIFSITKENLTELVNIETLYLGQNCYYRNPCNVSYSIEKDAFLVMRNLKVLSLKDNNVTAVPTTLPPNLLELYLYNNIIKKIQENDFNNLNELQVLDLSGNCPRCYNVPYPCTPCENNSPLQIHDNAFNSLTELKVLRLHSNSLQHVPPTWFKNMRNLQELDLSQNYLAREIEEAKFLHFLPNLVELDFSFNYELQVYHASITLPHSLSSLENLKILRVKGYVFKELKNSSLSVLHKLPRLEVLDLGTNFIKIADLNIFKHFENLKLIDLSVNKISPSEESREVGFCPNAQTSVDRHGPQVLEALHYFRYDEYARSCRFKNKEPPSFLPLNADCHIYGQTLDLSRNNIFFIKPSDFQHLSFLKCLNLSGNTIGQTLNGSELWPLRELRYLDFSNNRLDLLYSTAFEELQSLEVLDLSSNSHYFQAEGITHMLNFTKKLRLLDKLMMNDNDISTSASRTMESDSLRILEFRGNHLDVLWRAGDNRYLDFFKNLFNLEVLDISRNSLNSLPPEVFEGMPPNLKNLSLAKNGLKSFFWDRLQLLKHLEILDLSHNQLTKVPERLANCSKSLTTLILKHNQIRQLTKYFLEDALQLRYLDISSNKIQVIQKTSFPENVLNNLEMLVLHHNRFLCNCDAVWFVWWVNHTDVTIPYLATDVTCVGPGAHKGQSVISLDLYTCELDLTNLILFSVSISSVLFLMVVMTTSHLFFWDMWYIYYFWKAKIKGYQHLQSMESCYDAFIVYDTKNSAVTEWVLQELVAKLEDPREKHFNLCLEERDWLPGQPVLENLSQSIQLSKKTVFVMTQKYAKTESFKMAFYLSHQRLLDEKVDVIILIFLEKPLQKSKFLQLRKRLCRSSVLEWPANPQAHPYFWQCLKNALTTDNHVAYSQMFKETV
Description: as §1

SMILES: COc1ccc([C@@H]2C[C@H](C(F)(F)F)n3nc(-c4ccc(C(=O)N5CCNCC5)cc4)cc3N2)cc1OC [ER-892887, (4-((5S,7R)-5-(3,4-dimethoxyphenyl)-7-(trifluoromethyl)-4,5,6,7-tetrahydropyrazolo[1,5-a]pyrimidin-2-yl)phenyl)(piperazin-1-yl)methanone]
- pIC50 [1]: 8.00
- pIC50 [2]: 6.56
